The NIST ThermoML archive (doi:10.1016/j.fluid.2007.07.010)
Numbers after ± are expanded uncertainties.

Details: Liquid, Ebulliometric method (Recirculating still)

| Compound | vapor or sublimation pressure (273.15 K) | vapor or sublimation pressure (283.15 K) | vapor or sublimation pressure (293.15 K) | vapor or sublimation pressure (303.15 K) | vapor or sublimation pressure (313.15 K) | vapor or sublimation pressure (323.15 K) |
| --- | --- | --- | --- | --- | --- | --- |
| CCCC [butane] | 104 ± 2 kPa | 150 ± 2 kPa | 208 ± 2 kPa | 284 ± 2 kPa | 378 ± 3 kPa | 495 ± 3 kPa |
| CC(F)F [1,1-difluoroethane] | 264 ± 2 kPa | 372 ± 2 kPa | 512 ± 3 kPa | 689 ± 3 kPa | 909 ± 4 kPa | 1176 ± 5 kPa |
